Laboratory results reported in the CheMixHub viscosity set.
± gives the uncertainty stated by the source.

Experiment: xn = mol fraction of the nth substance listed

Oc1ccccc1Cl + CCCCCOC(C)=O
Conditions | viscosity [mPa·s]
298.15 K, 101 kPa, x1 = 0.5 | 1.202 ± 0.012

CCCN + CCCCCCCCCCO
viscosity [mPa·s], 101.33 kPa
Conditions | x1 = 0.0915 | x1 = 0.1817 | x1 = 0.283 | x1 = 0.3906 | x1 = 0.4858 | x1 = 0.59 | x1 = 0.718 | x1 = 0.8181 | x1 = 0.9058
303.15 K | 7.465 ± 0.041 | 6.249 ± 0.035 | 5.036 ± 0.03 | 3.906 ± 0.023 | 3.037 ± 0.018 | 2.211 ± 0.013 | 1.384 ± 0.0086 | 0.8865 ± 0.0057 | 0.5706 ± 0.0041
313.15 K | 5.86 ± 0.034 | 4.82 ± 0.029 | 3.89 ± 0.023 | 2.973 ± 0.018 | 2.284 ± 0.014 | 1.654 ± 0.01 | 1.051 ± 0.0067 | 0.7052 ± 0.0047 | 0.481 ± 0.0037

Oc1ccccc1Cl + CCOCCO
viscosity [mPa·s], 101 kPa
Conditions | x1 = 0.0961 | x1 = 0.193 | x1 = 0.2907 | x1 = 0.3894 | x1 = 0.4889 | x1 = 0.5893 | x1 = 0.6906 | x1 = 0.7928 | x1 = 0.8959
303.15 K | 2.185 ± 0.05 | 2.825 ± 0.064 | 3.45 ± 0.077 | 3.996 ± 0.088 | 4.376 ± 0.096 | 4.53 ± 0.099 | 4.41 ± 0.097 | 4.05 ± 0.089 | 3.486 ± 0.077
308.15 K | 1.948 ± 0.045 | 2.453 ± 0.056 | 2.949 ± 0.066 | 3.365 ± 0.075 | 3.66 ± 0.081 | 3.784 ± 0.084 | 3.706 ± 0.082 | 3.43 ± 0.076 | 3.005 ± 0.067
313.15 K | 1.725 ± 0.04 | 2.133 ± 0.049 | 2.524 ± 0.057 | 2.868 ± 0.064 | 3.106 ± 0.069 | 3.215 ± 0.072 | 3.17 ± 0.071 | 2.974 ± 0.067 | 2.664 ± 0.06
318.15 K | 1.567 ± 0.037 | 1.887 ± 0.044 | 2.19 ± 0.05 | 2.449 ± 0.056 | 2.63 ± 0.059 | 2.724 ± 0.061 | 2.702 ± 0.061 | 2.57 ± 0.058 | 2.341 ± 0.053

C=COC(C)=O + CCCCCCCCO
303.15 K, 101.33 kPa
Conditions | viscosity [mPa·s]
x1 = 0.1001 | 4.448 ± 0.026
x1 = 0.2008 | 3.155 ± 0.019
x1 = 0.3002 | 2.302 ± 0.014
x1 = 0.4017 | 1.705 ± 0.011
x1 = 0.4997 | 1.279 ± 0.008
x1 = 0.6008 | 0.965 ± 0.006
x1 = 0.6993 | 0.743 ± 0.005
x1 = 0.7981 | 0.577 ± 0.004
x1 = 0.8965 | 0.459 ± 0.004

CCCCCCCC(=O)O + CC(C)[C@@H]1CC[C@@H](C)C[C@H]1O
viscosity [mPa·s]
Conditions | 293.15 K | 298 K | 298.15 K | 303.15 K | 308.15 K | 313.15 K | 318.15 K | 323.15 K
100 kPa, x1 = 0.4 | 19.83 ± 0.18 | – | 15.29 ± 0.14 | 12.01 ± 0.11 | 9.58 ± 0.09 | 7.8 ± 0.07 | 6.43 ± 0.06 | 5.37 ± 0.05
101 kPa, x2 = 0.333 | – | 12 ± 0.5 | – | – | – | – | – | –

CCCN + CCC(C)O
303.15 K, 101 kPa
Conditions | viscosity [mPa·s]
x1 = 0.008438 | 2.439 ± 0.016
x1 = 0.01874 | 2.408 ± 0.016
x1 = 0.02903 | 2.377 ± 0.016
x1 = 0.04186 | 2.343 ± 0.015
x1 = 0.0458 | 2.329 ± 0.015
x1 = 0.05767 | 2.3 ± 0.015
x1 = 0.06786 | 2.277 ± 0.015
x1 = 0.07593 | 2.253 ± 0.015
x1 = 0.08515 | 2.224 ± 0.015

C=COC(C)=O + CCCCO
303.15 K, 101.33 kPa
Conditions | viscosity [mPa·s]
x1 = 0.1008 | 1.622 ± 0.01
x1 = 0.1999 | 1.211 ± 0.008
x1 = 0.3008 | 0.944 ± 0.006
x1 = 0.3993 | 0.768 ± 0.005
x1 = 0.5055 | 0.634 ± 0.004
x1 = 0.6002 | 0.547 ± 0.004
x1 = 0.6998 | 0.482 ± 0.004
x1 = 0.7997 | 0.433 ± 0.003
x1 = 0.8749 | 0.405 ± 0.003

CCCCCCCC(=O)O + c1ccccc1
298.15 K, 101 kPa
Conditions | viscosity [mPa·s]
x1 = 0.03 | 0.638 ± 0.017
x1 = 0.057 | 0.68 ± 0.018
x1 = 0.087 | 0.727 ± 0.019
x1 = 0.12 | 0.781 ± 0.021
x1 = 0.27 | 1.072 ± 0.028
x1 = 0.35 | 1.295 ± 0.034
x1 = 0.45 | 1.591 ± 0.042
x1 = 0.68 | 2.505 ± 0.065

Oc1ccccc1Cl + C1CCCCC1
viscosity [mPa·s], 303.15 K
Conditions | x2 = 0.1078 | x2 = 0.2025 | x2 = 0.3072 | x2 = 0.4048 | x2 = 0.6046 | x2 = 0.6564 | x2 = 0.7542 | x2 = 0.8969
101 kPa | 2.275 ± 0.034 | 1.996 ± 0.03 | 1.622 ± 0.025 | 1.331 ± 0.02 | 1.032 ± 0.016 | 0.981 ± 0.015 | 0.881 ± 0.013 | 0.795 ± 0.012
101.33 kPa | 2.275 ± 0.059 | 1.996 ± 0.052 | 1.622 ± 0.042 | 1.331 ± 0.034 | 1.032 ± 0.027 | 0.981 ± 0.025 | 0.881 ± 0.023 | 0.794 ± 0.021

Clc1ccccc1Cl + CC#N
308.15 K, 101 kPa
Conditions | viscosity [mPa·s]
x1 = 0.1003 | 0.3803 ± 0.0088
x1 = 0.2063 | 0.4569 ± 0.01
x1 = 0.3069 | 0.5299 ± 0.011
x1 = 0.4058 | 0.6077 ± 0.013
x1 = 0.4918 | 0.676 ± 0.014
x1 = 0.5925 | 0.7617 ± 0.016
x1 = 0.6956 | 0.8443 ± 0.017
x1 = 0.7945 | 0.9395 ± 0.019
x1 = 0.9016 | 1.027 ± 0.021

Oc1ccccc1Cl + CO
Conditions | viscosity [mPa·s]
303.15 K, 101 kPa, x1 = 0.2447 | 1.911 ± 0.86

C=COC(C)=O + Cc1ccc(C)cc1
viscosity [mPa·s], 101 kPa
Conditions | x1 = 0.1501 | x1 = 0.2469 | x1 = 0.3618 | x1 = 0.4592 | x1 = 0.5631 | x1 = 0.67 | x1 = 0.7587 | x1 = 0.8601 | x1 = 0.9478
303.15 K | 0.537 ± 0.007 | 0.518 ± 0.007 | 0.497 ± 0.006 | 0.48 ± 0.006 | 0.462 ± 0.006 | 0.445 ± 0.006 | 0.435 ± 0.006 | 0.42 ± 0.005 | 0.403 ± 0.005
313.15 K | 0.486 ± 0.006 | 0.467 ± 0.006 | 0.445 ± 0.006 | 0.428 ± 0.006 | 0.41 ± 0.005 | 0.393 ± 0.005 | – | – | 0.353 ± 0.005

CCCCOC(C)=O + CCCCO
viscosity [mPa·s], 101 kPa
Conditions | x1 = 0.1 | x1 = 0.1944 | x1 = 0.2974 | x1 = 0.3991 | x1 = 0.4988 | x1 = 0.6008 | x1 = 0.6913 | x1 = 0.7961 | x1 = 0.8993
298.15 K | 2.212 ± 0.024 | 1.921 ± 0.02 | 1.641 ± 0.017 | 1.407 ± 0.014 | 1.212 ± 0.012 | 1.041 ± 0.01 | 0.923 ± 0.009 | 0.813 ± 0.008 | 0.727 ± 0.008
303.15 K | 1.962 ± 0.022 | 1.713 ± 0.018 | 1.475 ± 0.015 | 1.262 ± 0.013 | 1.091 ± 0.011 | 0.948 ± 0.01 | 0.839 ± 0.009 | 0.755 ± 0.008 | 0.688 ± 0.008
308.15 K | 1.75 ± 0.02 | 1.532 ± 0.017 | 1.31 ± 0.014 | 1.146 ± 0.012 | 0.993 ± 0.01 | 0.876 ± 0.009 | 0.789 ± 0.008 | 0.703 ± 0.008 | 0.646 ± 0.007
313.15 K | 1.558 ± 0.018 | 1.365 ± 0.015 | 1.184 ± 0.013 | 1.037 ± 0.011 | 0.908 ± 0.01 | 0.806 ± 0.009 | 0.731 ± 0.008 | 0.662 ± 0.008 | 0.619 ± 0.007

CC(C)c1ccccc1 + CCO
viscosity [mPa·s], 101 kPa
Conditions | x1 = 0.0663 | x1 = 0.1236 | x1 = 0.2015 | x1 = 0.2971 | x1 = 0.4052 | x1 = 0.5656 | x1 = 0.7293
298.15 K | 1.036 ± 0.007 | 0.982 ± 0.007 | 0.926 ± 0.008 | 0.878 ± 0.009 | 0.836 ± 0.01 | 0.796 ± 0.013 | 0.764 ± 0.015
308.15 K | 0.897 ± 0.006 | 0.86 ± 0.006 | 0.81 ± 0.007 | 0.753 ± 0.008 | 0.7 ± 0.009 | 0.653 ± 0.01 | 0.64 ± 0.013
